According to ChEMBL document CHEMBL1148600, “Synthesis and in vivo validation of [O-methyl-11C]2-{4-[4-(7-methoxynaphthalen-1-yl)piperazin- 1-yl]butyl}-4-methyl-2H-[1,2,4]triazine-3,5-dione: a novel 5-HT1A receptor agonist positron emission tomography ligand” (J Med Chem, 2006):

Tests used:
[1] = biological target: Adrenergic receptor alpha-1 (Homo sapiens, UniProt P35348+P25100+P35368); assay: Binding affinity to adrenergic alpha-1 receptor; format: protein assay
Histamine H2 receptor = Histamine H2 receptor (Homo sapiens, UniProt P25021); assay: Binding affinity to histamine H2 receptor
[2] = biological target: 5-hydroxytryptamine receptor 5A (Homo sapiens, UniProt P47898); assay: Binding affinity to human 5HT5A receptor
D(3) dopamine receptor = D(3) dopamine receptor (Homo sapiens, UniProt P35462); assay: Binding affinity to dopamine D3 receptor
[3] = biological target: Sodium-dependent serotonin transporter (Homo sapiens, UniProt P31645); assay: Binding affinity to SERT
[4] = biological target: Glutamate [NMDA] receptor; assay: Binding affinity to NMDA receptor; format: protein-complex assay
[5] = biological target: Kappa-type opioid receptor (Homo sapiens, UniProt P41145); assay: Binding affinity to kappa opioid receptor
Adenosine receptor A2a = Adenosine receptor A2a (Homo sapiens, UniProt P29274); assay: Binding affinity to adenosine […] receptor
[6] = Binding affinity to imidazoline receptor
[7] = biological target: Beta-1 adrenergic receptor (Homo sapiens, UniProt P08588); assay: Binding affinity to adrenergic beta-1 receptor
[8] = biological target: Sodium-dependent dopamine transporter (Homo sapiens, UniProt Q01959); assay: Binding affinity to DAT
[9] = biological target: Serotonin 3 (5-HT3) receptor; assay: Binding affinity to human 5HT3 receptor; format: protein-complex assay
[10] = biological target: Beta-3 adrenergic receptor (Homo sapiens, UniProt P13945); assay: Binding affinity to adrenergic beta-3 receptor
Sigma 2 receptor = assay: Binding affinity to sigma2 receptor
[11] = biological target: T1, 5-hydroxytryptamine receptor 1A (Homo sapiens, UniProt P08908); assay: Agonistic activity at human 5HT1A in CHO cells by the inhibition of forskolin-stimulated cAMP accumulation; format: functional, cell-based
T1 sequence (P08908 whole entry): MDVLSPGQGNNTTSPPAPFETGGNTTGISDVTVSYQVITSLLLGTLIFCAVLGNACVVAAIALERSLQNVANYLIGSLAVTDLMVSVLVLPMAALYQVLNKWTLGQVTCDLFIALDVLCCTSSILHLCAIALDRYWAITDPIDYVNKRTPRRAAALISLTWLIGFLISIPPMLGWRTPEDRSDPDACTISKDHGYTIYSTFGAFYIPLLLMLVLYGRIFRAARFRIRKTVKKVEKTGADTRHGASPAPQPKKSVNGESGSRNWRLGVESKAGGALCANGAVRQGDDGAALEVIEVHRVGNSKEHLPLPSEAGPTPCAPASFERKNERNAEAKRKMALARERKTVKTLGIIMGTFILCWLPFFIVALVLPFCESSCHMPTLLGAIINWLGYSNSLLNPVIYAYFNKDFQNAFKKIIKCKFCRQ

Histamine H4 receptor = Histamine H4 receptor (Homo sapiens, UniProt Q9H3N8); assay: Binding affinity to histamine H4 receptor
[12] = Binding affinity to mGluR
[13] = biological target: Glutamate receptor ionotropic AMPA (Homo sapiens, UniProt P42261+P42262+P42263+P48058); assay: Binding affinity to AMPA receptor; format: protein-complex assay
[14] = biological target: Sodium-dependent noradrenaline transporter (Homo sapiens, UniProt P23975); assay: Binding affinity to NET
[15] = biological target: T1, 5-hydroxytryptamine receptor 1A; assay: Displacement of [3H]8-OH-DPAT from human 5HT1A receptor expressed in CHO cells; format: cell-based
[16] = biological target: T1, 5-hydroxytryptamine receptor 1A; assay: Agonistic activity at human 5HT1A receptor by [35S]GTP-gamma-S binding; format: functional
[17] = biological target: Alpha-2B adrenergic receptor (Homo sapiens, UniProt P18089); assay: Binding affinity to adrenergic alpha-2B receptor
Cannabinoid receptor 2 = Cannabinoid receptor 2 (Homo sapiens, UniProt P34972); assay: Binding affinity to CB2 receptor
[18] = biological target: ATP-dependent translocase ABCB1 (Homo sapiens, UniProt P08183); assay: Binding affinity to MDR1
[19] = biological target: Tumor necrosis factor receptor superfamily member 16 (Homo sapiens, UniProt P08138); assay: Binding affinity to neurotrophin receptor
D(2) dopamine receptor = D(2) dopamine receptor (Homo sapiens, UniProt P14416); assay: Binding affinity to dopamine D2 receptor
D(4) dopamine receptor = D(4) dopamine receptor (Homo sapiens, UniProt P21917); assay: Binding affinity to dopamine D4 receptor
[20] = biological target: Chromaffin granule amine transporter (Homo sapiens, UniProt P54219); assay: Binding affinity to VMAT1
[21] = Binding affinity to sodium channel
[22] = biological target: Alpha-2C adrenergic receptor (Homo sapiens, UniProt P18825); assay: Binding affinity to adrenergic alpha-2C receptor
Vasopressin V1 receptor = Vasopressin V1 receptor (Homo sapiens, UniProt P37288+P47901); assay: Binding affinity to vasopressin 1 receptor; format: protein assay
D(1B) dopamine receptor = D(1B) dopamine receptor (Homo sapiens, UniProt P21918); assay: Binding affinity to dopamine D5 receptor
[23] = biological target: Beta-2 adrenergic receptor (Homo sapiens, UniProt P07550)
[24] = biological target: Delta-type opioid receptor (Homo sapiens, UniProt P41143); assay: Binding affinity to Delta opioid receptor
[25] = biological target: Synaptic vesicular amine transporter (Homo sapiens, UniProt Q05940); assay: Binding affinity to VMAT2
[26] = biological target: 5-hydroxytryptamine receptor 2C (Homo sapiens, UniProt P28335); assay: Binding affinity to human 5HT2C receptor
[27] = biological target: Muscarinic acetylcholine receptor; assay: Binding affinity to muscarinic receptor; format: protein assay
Cannabinoid receptor 1 = Cannabinoid receptor 1 (Homo sapiens, UniProt P21554); assay: Binding affinity to CB1 receptor
[28] = biological target: 5-hydroxytryptamine receptor 6 (Homo sapiens, UniProt P50406); assay: Binding affinity to human 5HT6 receptor
[29] = biological target: 5-hydroxytryptamine receptor 2A (Homo sapiens, UniProt P28223); assay: Binding affinity to human 5HT2A receptor
Histamine H3 receptor = Histamine H3 receptor (Homo sapiens, UniProt Q9Y5N1); assay: Binding affinity to histamine H3 receptor
[30] = biological target: Voltage-gated inwardly rectifying potassium channel KCNH2 (Homo sapiens, UniProt Q12809); assay: Binding affinity to hERG
Mu-type opioid receptor = Mu-type opioid receptor (Homo sapiens, UniProt P35372); assay: Binding affinity to mu opioid receptor
[31] = Binding affinity to calcium channel
[32] = Binding affinity to GABA receptor
D(1A) dopamine receptor = D(1A) dopamine receptor (Homo sapiens, UniProt P21728); assay: Binding affinity to dopamine D1 receptor
Histamine H1 receptor = Histamine H1 receptor (Homo sapiens, UniProt P35367); assay: Binding affinity to histamine H1 receptor
Adenosine A2 receptor = Adenosine A2 receptor (Homo sapiens, UniProt P29275+P29274); assay: Binding affinity to adenosine A2 receptor; format: protein assay
[33] = biological target: Sigma non-opioid intracellular receptor 1 (Homo sapiens, UniProt Q99720); assay: Binding affinity to sigma1 receptor
[34] = Binding affinity to prostanoid receptor
[35] = biological target: Alpha-2A adrenergic receptor (Homo sapiens, UniProt P08913); assay: Binding affinity to adrenergic alpha-2A receptor
[36] = Binding affinity to NK receptor
[37] = biological target: 5-hydroxytryptamine receptor 7 (Homo sapiens, UniProt P34969); assay: Binding affinity to human 5HT7 receptor
Adenosine receptor A3 = Adenosine receptor A3 (Homo sapiens, UniProt P0DMS8); assay: Binding affinity to adenosine A3 receptor
Vasopressin V2 receptor = Vasopressin V2 receptor (Homo sapiens, UniProt P30518); assay: Binding affinity to vasopressin 2 receptor

Sequence of Sodium-dependent dopamine transporter (Q01959 whole entry): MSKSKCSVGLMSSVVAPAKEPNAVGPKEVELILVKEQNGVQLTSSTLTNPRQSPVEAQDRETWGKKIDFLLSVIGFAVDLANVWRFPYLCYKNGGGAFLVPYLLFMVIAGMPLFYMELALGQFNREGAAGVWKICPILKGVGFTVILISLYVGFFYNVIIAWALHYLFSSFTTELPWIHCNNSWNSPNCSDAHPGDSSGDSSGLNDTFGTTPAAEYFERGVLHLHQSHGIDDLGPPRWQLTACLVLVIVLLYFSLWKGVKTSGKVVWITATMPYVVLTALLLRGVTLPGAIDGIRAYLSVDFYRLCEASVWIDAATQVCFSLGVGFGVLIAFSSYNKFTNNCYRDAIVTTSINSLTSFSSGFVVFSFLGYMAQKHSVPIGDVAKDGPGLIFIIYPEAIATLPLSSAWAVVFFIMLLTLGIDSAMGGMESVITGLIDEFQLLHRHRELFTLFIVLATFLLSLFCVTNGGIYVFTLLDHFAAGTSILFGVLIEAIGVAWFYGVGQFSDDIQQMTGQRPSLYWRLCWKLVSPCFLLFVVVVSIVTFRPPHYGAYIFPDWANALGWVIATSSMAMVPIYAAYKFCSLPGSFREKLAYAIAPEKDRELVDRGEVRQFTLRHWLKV
Sequence of Kappa-type opioid receptor (P41145 whole entry): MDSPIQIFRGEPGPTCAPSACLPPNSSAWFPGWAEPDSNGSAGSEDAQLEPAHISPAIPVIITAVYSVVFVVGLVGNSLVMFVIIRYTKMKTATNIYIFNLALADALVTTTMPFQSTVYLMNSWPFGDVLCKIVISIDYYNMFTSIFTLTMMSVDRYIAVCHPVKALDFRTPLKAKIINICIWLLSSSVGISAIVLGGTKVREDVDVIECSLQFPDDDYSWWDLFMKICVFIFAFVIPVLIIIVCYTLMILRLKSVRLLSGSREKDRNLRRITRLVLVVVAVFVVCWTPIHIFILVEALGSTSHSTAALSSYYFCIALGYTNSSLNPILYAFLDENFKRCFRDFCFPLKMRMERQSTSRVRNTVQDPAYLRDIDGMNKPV
Sequence of Alpha-2C adrenergic receptor (P18825 whole entry): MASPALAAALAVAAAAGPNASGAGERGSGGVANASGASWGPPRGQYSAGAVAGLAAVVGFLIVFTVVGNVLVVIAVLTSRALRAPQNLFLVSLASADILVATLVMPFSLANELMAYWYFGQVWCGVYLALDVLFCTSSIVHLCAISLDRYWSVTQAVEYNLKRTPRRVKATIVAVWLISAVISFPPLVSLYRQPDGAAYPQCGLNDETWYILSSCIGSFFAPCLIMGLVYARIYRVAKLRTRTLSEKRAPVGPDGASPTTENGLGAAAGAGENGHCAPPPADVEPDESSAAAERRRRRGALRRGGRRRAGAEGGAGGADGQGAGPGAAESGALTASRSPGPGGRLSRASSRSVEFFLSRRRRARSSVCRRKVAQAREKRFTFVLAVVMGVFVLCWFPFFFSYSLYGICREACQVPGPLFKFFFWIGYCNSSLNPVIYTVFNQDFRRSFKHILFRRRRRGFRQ
Sequence of Cannabinoid receptor 2 (P34972 whole entry): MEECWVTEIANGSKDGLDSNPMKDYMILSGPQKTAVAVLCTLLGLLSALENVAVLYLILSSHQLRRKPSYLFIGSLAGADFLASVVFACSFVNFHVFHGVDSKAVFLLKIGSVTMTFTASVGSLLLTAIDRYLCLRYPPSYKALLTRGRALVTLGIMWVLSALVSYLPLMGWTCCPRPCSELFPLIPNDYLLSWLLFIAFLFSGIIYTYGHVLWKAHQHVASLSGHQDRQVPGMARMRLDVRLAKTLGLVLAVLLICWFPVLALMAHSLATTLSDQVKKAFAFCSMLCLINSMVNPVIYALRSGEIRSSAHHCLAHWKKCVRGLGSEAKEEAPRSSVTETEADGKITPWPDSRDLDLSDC
Sequence of Delta-type opioid receptor (P41143 whole entry): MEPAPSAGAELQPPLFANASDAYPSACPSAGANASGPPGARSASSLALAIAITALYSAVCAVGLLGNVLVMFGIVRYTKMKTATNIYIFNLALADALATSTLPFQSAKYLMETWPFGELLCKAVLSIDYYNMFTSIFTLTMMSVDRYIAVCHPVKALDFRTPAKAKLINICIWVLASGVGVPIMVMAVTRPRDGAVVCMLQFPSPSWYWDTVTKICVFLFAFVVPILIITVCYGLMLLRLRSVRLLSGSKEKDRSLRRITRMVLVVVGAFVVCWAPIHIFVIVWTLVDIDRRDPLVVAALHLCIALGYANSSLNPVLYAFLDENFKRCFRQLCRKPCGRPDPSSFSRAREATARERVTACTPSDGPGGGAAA
Sequence of Adenosine receptor A3 (P0DMS8 whole entry): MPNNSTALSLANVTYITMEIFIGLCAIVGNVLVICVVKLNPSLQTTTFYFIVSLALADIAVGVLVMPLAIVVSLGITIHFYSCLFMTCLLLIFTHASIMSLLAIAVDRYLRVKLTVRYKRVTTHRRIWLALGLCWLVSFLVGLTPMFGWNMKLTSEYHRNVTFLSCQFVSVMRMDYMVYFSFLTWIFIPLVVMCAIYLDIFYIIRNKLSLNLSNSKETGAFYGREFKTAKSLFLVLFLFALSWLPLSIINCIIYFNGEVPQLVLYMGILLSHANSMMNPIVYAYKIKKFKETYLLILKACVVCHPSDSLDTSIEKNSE
Sequence of D(1A) dopamine receptor (P21728 whole entry): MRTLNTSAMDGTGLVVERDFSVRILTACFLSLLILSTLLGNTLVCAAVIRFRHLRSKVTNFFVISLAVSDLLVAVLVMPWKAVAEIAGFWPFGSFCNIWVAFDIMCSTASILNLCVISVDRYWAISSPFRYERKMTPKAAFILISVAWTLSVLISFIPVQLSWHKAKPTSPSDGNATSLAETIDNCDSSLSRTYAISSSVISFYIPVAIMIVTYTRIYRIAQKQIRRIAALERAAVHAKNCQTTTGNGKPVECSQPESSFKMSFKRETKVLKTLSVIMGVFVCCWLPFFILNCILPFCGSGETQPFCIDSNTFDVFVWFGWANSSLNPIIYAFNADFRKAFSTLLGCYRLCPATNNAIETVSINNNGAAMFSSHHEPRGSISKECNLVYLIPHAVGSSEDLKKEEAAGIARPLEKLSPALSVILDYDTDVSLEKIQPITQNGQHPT
Sequence of D(3) dopamine receptor (P35462 whole entry): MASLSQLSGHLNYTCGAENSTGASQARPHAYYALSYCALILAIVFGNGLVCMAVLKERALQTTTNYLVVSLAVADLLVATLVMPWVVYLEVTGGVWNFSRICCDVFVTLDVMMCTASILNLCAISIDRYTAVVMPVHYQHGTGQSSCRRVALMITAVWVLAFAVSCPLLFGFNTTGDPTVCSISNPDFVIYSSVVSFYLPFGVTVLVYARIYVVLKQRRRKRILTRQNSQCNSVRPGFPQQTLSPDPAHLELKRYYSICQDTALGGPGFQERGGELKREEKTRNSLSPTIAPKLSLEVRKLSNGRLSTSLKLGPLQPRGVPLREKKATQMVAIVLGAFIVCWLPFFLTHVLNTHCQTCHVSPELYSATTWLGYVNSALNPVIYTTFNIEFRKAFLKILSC
Sequence of Sodium-dependent noradrenaline transporter (P23975 whole entry): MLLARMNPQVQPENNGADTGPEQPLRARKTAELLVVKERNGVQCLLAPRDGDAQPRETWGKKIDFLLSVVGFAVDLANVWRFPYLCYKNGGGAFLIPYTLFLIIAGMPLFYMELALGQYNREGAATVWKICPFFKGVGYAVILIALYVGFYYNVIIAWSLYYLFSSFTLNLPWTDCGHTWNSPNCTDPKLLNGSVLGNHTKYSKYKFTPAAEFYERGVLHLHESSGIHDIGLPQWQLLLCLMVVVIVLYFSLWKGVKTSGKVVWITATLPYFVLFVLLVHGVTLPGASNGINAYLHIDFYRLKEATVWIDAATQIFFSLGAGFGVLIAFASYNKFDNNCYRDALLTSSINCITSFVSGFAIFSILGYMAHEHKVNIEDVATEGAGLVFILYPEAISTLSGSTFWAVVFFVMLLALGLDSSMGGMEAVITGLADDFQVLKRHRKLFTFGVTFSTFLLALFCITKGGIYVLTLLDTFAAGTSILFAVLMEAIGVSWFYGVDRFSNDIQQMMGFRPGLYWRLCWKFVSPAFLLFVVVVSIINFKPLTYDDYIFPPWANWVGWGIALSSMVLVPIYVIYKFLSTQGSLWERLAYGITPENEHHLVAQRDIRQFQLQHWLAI
Sequence of D(4) dopamine receptor (P21917 whole entry): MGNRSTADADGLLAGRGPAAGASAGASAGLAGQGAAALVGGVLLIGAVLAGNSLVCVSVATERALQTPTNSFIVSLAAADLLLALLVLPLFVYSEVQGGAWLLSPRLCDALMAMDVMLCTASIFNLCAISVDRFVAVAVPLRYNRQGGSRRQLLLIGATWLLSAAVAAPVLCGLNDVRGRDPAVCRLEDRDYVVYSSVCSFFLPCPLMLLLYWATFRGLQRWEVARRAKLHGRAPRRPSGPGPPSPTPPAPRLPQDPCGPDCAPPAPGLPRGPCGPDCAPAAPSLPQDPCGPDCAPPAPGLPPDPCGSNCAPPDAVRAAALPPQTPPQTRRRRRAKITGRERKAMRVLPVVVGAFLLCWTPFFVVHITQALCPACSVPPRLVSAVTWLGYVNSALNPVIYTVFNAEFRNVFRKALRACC
Sequence of 5-hydroxytryptamine receptor 7 (P34969 whole entry): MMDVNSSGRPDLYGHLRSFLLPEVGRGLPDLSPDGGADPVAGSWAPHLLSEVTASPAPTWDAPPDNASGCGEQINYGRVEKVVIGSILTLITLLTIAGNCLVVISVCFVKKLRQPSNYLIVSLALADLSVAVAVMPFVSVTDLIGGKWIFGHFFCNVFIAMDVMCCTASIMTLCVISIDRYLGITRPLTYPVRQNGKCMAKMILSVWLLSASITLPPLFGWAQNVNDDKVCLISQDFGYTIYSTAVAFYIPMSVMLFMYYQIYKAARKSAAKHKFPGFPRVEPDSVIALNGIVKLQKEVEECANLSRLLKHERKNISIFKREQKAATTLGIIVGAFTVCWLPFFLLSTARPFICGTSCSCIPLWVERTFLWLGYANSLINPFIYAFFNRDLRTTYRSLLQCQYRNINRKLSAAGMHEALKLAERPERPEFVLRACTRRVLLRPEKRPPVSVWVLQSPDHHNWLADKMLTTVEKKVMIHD

Cn1c(=O)cnn(CCCCN2CCN(c3cccc4ccc(O[11CH3])cc34)CC2)c1=O
Ki [1]: 32.2 nM
Ki (Histamine H2 receptor): 302 nM
Ki [2]: 229 nM
Ki (D(3) dopamine receptor): 62.8 nM
Ki [3]: 6140 nM
Ki [4]: > 10000 nM
Ki [5]: > 10000 nM
Ki (Adenosine receptor A2a): > 10000 nM
Ki [6]: > 10000 nM
Ki [7]: 476 nM
Ki [8]: 407 nM
Ki [9]: > 10000 nM
Ki [10]: > 10000 nM
Ki (Sigma 2 receptor): > 10000 nM
EC50 [11]: 0.01 nM
Ki (Histamine H4 receptor): > 10000 nM
Ki [12]: > 10000 nM
Ki [13]: > 10000 nM
Ki [14]: 6980 nM
Ki [15]: 1.36 nM
EC50 [16]: 0.05 nM
Ki [17]: 316 nM
Ki (Cannabinoid receptor 2): > 10000 nM
Ki [18]: > 10000 nM
Ki [19]: > 10000 nM
Ki (D(2) dopamine receptor): 22 nM
Ki (D(4) dopamine receptor): 8.5 nM
Ki [20]: > 10000 nM
Ki [21]: > 10000 nM
Ki [22]: 23.7 nM
Ki (Vasopressin V1 receptor): > 10000 nM
Ki (D(1B) dopamine receptor): > 10000 nM
Ki [23]: 60.6 nM
Ki [24]: > 10000 nM
Ki [25]: > 10000 nM
Ki [26]: 99.6 nM
Ki [27]: > 10000 nM
Ki (Cannabinoid receptor 1): > 10000 nM
Ki [28]: 120 nM
Ki [29]: 41.5 nM
Ki (Histamine H3 receptor): > 10000 nM
Ki [30]: > 10000 nM
Ki (Mu-type opioid receptor): > 10000 nM
Ki [31]: > 10000 nM
Ki [32]: > 10000 nM
Ki (D(1A) dopamine receptor): 7400 nM
Ki (Histamine H1 receptor): 150 nM
Ki (Adenosine A2 receptor): > 10000 nM
Ki [33]: 480 nM
Ki [34]: > 10000 nM
Ki [35]: 1010 nM
Ki [36]: > 10000 nM
Ki [37]: 9.1 nM
Ki (Adenosine receptor A3): > 10000 nM
Ki (Vasopressin V2 receptor): > 10000 nM
